Experimental data taken from US9562044B2, “2-acylaminothiazole derivative or salt thereof” (ASTELLAS PHARMA INC., priority 2013, dated 2017).

Tests used:
human c-Mpl receptor [1] = target: T1, human c-Mpl receptor (Homo sapiens, UniProt P40238); test: Human c-Mpl-introduced Ba/F3 cell proliferative activity; format: cell-based; settings: concentration showing 30% proliferation; 100% = positive control at 1 μM
T1 construct: expressed in transfected cells
T1 sequence (P40238 26-635): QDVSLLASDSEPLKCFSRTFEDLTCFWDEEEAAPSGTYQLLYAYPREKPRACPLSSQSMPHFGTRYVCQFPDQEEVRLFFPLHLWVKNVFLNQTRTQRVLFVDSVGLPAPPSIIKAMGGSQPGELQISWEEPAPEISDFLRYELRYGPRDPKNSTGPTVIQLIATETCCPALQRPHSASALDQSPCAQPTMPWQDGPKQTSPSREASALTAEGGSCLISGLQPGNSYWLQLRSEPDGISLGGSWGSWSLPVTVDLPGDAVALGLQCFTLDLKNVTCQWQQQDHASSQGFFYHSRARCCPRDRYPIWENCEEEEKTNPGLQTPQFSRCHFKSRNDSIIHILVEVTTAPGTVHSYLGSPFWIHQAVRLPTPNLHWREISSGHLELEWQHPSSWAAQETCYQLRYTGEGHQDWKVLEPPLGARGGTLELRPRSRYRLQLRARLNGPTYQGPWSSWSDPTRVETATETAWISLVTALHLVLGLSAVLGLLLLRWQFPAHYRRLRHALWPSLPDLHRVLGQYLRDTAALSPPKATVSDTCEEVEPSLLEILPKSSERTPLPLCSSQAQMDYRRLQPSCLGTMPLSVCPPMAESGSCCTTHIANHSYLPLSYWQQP
Description: Evaluation of Human c-Mpl-Introduced Ba/F3 Cell Proliferative Activity
The human c-Mpl-introduced Ba/F3 cell proliferative activity was measured by the following method.
As a positive control, 1-(5-{[4-(4-chloro-2-thienyl)-5-{[(2R)-2-methylpyrrolidin-1-yl]methyl}-1,3-thiazol-2-yl]carbamoyl}-3-fluoropyridin-2-yl)piperidine-4-carboxylic acid hydrochloride, which is disclosed as Example 315 in Patent Document 1 and represented by the formula A1, was used. It is known that the compound has a good human c-Mpl-introduced Ba/F3 cell proliferative activity as disclosed in Table 1 of Patent Document 1.
a) Construction of Human c-Mpl Receptor Expression Vector
A human c-mpl receptor gene (GenBank Accession No. M90102.1) was introduced into an expression vector pEF-BOS (Nucleic Acids Res. 18, 5322, 1990).
b) Construction of Cell Stably Expressing Human c-Mpl Receptor
A human c-Mpl receptor expression vector was introduced into a Ba/F3 cell (RIKEN BRC: RCB0805). For the introduction, an electroporation method was used. pEF-BOS-c-mpl (10 μg), pSV2bsr (1 μg, Kaken Pharmaceutical Co., Ltd.) and 1×10^7 Ba/F3 cells were put into a cuvette having a gap width of 0.4 cm, and electroporated under the conditions of 1.5 kV (25 μF) by a Gene Pulser (registered trademark) (BioRad). The cells were cultured in an RPMI-1640 culture medium containing 0.5% WEHI conditioned media (BD Biosciences) and 10% fetal bovine serum for 3 days, and then cultured in an RPMI-1640 culture medium, to which 10 μg/mL blasticidin had been further added, for 30 days to acquire a drug-resistant clone.
c) Measurement of Cell Proliferative Activity
The cells obtained in b) above was cultured in an RPMI-1640 culture medium containing 0.5% WEHI conditioned media, 10% fetal bovine serum, and used. On the day before the experiment, test substances (final concentration of 100 nM to 10 μM) which had been dissolved in a culture medium for assay (RPMI-1640 culture medium containing 10% fetal bovine serum) were added to a 384-well plate (Lot No. 781185, Greiner Bio-One). The cells in the culture medium that had been replaced with a culture medium for assay were dispensed into a 384-well plate, to which the test substances had been added in advance, to 1×10^4 cells/well, and cultured at 37° C. and 5% CO2 overnight. On the experiment day, a solution of a Cell Counting Kit (Dojindo Laboratories) was added to each well of the 384-well plate and cultured at 37° C. and 5% CO2 for about 5 hours. Thereafter, the absorbance (absorption wavelength of 450 nm) of each well was measured using Safire^2™ (TECAN) and used as the index of the number of cells. Further, as a negative control, a well in which the test substance had been not added was prepared.
The absorbance of the well without the test substance was set to 0%, and the absorbance in the case where the positive control was added at a final concentration of 1 μM was set to 100%. From the absorbance in the case where the test substance had been added, a cell proliferation rate (%) was calculated. From the obtained results, the test substance concentration showing 30% proliferation was calculated as an EC30 value by a logistic regression method.

isolated rat bladder = test: Transmural electrical field stimulation-induced contraction of isolated rat bladder; settings: AUC of contractile response, value before treatment = 100%, SD female rat bladder strip, read-out: Enhancement rate of isolated bladder contraction (% of pre)
Description: Effects on Transmural Electrical Field Stimulation-Induced Contraction of Isolated Rat Bladder
As an effect on the nerve stimulation-dependent bladder contraction in vitro, the effect of the Example compound of the present invention in the transmural electrical field stimulation-induced contraction of isolated rat bladder was measured by the following method. That is, from the bladder isolated from a Spraque-Dawley (SD) female rat (Japan SLC, Inc.), a longitudinal bladder strip having a width of about 2 mm and a length of about 10 mm was prepared. The prepared bladder strip was suspended in an organ bath filled with 10 mL of a Krebs-Henseleit solution. The Krebs-Henseleit solution was bubbled with 95% O2 and 5% CO2, and kept at 37° C. After stabilization at an initial tension of 1 g, contraction was induced twice with 60 mM KCl. The strip was washed with the Krebs-Henseleit solution and stabilized, and then contraction was induced with transmural electrical field stimulation at 20 V (stimulation frequency of 8 Hz, pulse width of 0.3 msec, and stimulation time of 10 seconds) by an electrical stimulation device (Nihon Kohden Corporation). At an interval of 2 minutes, transmural electrical field stimulation was repeated and the voltage was adjusted to make the contractile amplitude about 50% of the contractile response by 20 V. After stabilization of the contraction by the transmural electrical field stimulation, 10 μL of the test substance (final concentrations of 3 μM, 10 μM, and 30 μM), which had been dissolved in 100% dimethylsulfoxide in advance was added. The test substance was cumulatively administered at the next concentration after the contractile response at a lower concentration had been stabilized. The responses were put into a personal computer through PowerLab (registered trademark) (AD Instruments), and analyzed with LabChart (registered trademark) (AD Instruments). The area under the response of each contractile response (area under curve, AUC) was calculated and the value before the treatment with the test substance was set to 100%. Based on this, the enhancement rate of the isolated bladder contraction (% of pre) after the treatment with the test substance was calculated.
The enhancement rates of the isolated bladder contraction due to several 10 μM Example compounds which are the compounds of the formula (I) are shown in Table 2.

human c-Mpl receptor [2] = target: T1, human c-Mpl receptor; settings: positive control; as disclosed in Patent Document 1; cited from earlier work

Row | melting point | Structure (SMILES) | other results
1 | 194 °C | CC[C@@H]1CCCN1Cc1sc(NC(=O)c2cnc(N3CCC(C(=O)O)CC3)cn2)nc1-c1ccc(OC)c(C(F)(F)F)c1 [Example 8, 1-{5-[(5-{[(2R)-2-ethylpyrrolidin-1-yl]methyl}-4-[4-methoxy-3-(trifluoromethyl)phenyl]-1,3-thiazol-2-yl)carbamoyl]pyrazin-2-yl}piperidine-4-carboxylic acid] | –
2 | – | COc1ccc(-c2nc(NC(=O)c3cnc(N4CCC(C(=O)O)CC4)cn3)sc2CN2CCCC2C(C)C)cc1C(F)(F)F (stereo not drawn) [Example 188] | Test Example 2 EC30 (human c-Mpl receptor [1]): >10 µM; activity at 10 µM (isolated rat bladder): 128%
3 | 201 °C | C[C@@H]1CCCN1Cc1sc(NC(=O)c2cnc(N3CCC(C(=O)O)CC3)cn2)nc1-c1cc(Cl)cs1 [Example 206, 1-(5-{[4-(4-chloro-2-thienyl)-5-{[(2R)-2-methylpyrrolidin-1-yl]methyl}-1,3-thiazol-2-yl]carbamoyl}pyrazin-2-yl)piperidine-4-carboxylic acid] | –
4 | 136 °C | COc1cc(-c2nc(NC(=O)c3cnc(N4CCC(C(=O)O)CC4)cn3)sc2CN2CCCC[C@H]2C)cc(C(F)(F)F)c1 [Example 207, 1-{5-[(4-[3-methoxy-5-(trifluoromethyl)phenyl]-5-{[(2R)-2-methylpiperidin-1-yl]methyl}-1,3-thiazol-2-yl)carbamoyl]pyrazin-2-yl}piperidine-4-carboxylic acid] | –
5 | – | C[C@@H]1CCCN1Cc1sc(NC(=O)c2cnc(N3CCC(C(=O)O)CC3)c(F)c2)nc1-c1cc(Cl)cs1.Cl [Example A1, 1-(5-{[4-(4-chloro-2-thienyl)-5-{[(2R)-2-methylpyrrolidin-1-yl]methyl}-1,3-thiazol-2-yl]carbamoyl}-3-fluoropyridin-2-yl)piperidine-4-carboxylic acid hydrochloride] | Human c-Mpl-introduced Ba/F3 cell proliferative activity (Table 1 of Patent Document 1) (human c-Mpl receptor [2]): good
